System: Wood46 strain of S. aureus
Test: Macrophage intracellular killing assay with opsonized, washed bacteria
Format: cell-based, Staphylococcus aureus
Details: 10 μg/mL or 0.5 μg/mL
Description: The Wood46 strain of S. aureus was incubated with 10 μg/mL or 0.5 μg/mL of S4497 antibody, Isotype control-AAC containing a cathepsin B cleavable linker, thio-trastuzumab HC A118C-MC-vc-PAB-(dimethyl-pipBOR) AAC-101, thio-S4497 HC WT (v8), LC V205C-MC-vc-PAB-(dimethylpipBOR) AAC-192, Isotype control-AAC containing a staphopain cleavable linker, thio-trastuzumab HC […]-MP-LAFG-PABC-(piperazinoBOR) (“core peptide” disclosed as SEQ ID NO: 128) or thio-S4497 HC v1-MP-LAFG-PABC-(piperazinoBOR) (“core peptide” disclosed as SEQ ID NO: 128) AAC-193 for 1 hour to permit binding of the AAC to bacteria (FIG. 32). To limit non-specific binding of the AAC, the opsonized bacteria were centrifuged, washed once and resuspended in buffer before being fed to murine macrophages. […] Antibody-antibiotic conjugate, thio-54497 LC v8-MP-LAFG-PABC-(piperazinoBOR) (“core peptide” disclosed as SEQ ID NO: 128)AAC-215 is efficacious in vivo in a MRSA infection model: […]

“thio-trastuzumab HC A1118C-MP-LAFG-PABC-(piperazinoBOR)” was tested, and the “killing of intracellular bacteria” value was “no activity”.

Source: patent publication US9803002B2, “Anti-wall teichoic antibodies and conjugates” (Genentech, Inc., priority 2013, dated 2017)
